The values below come from the supplement of paper PMC3937590.

Common to all, as to test: -log10 GI50 (growth inhibition 50%) (-log10(M)); higher = more potent growth inhibition
For experiment [1], the system named is AU565. In outline: (§1)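 Breast cancer cell lines were treated with each compound for 72 hours at nine doses in 1:5 serial dilution, in triplicate, and luminescence was read against a time-zero plate. A Gompertz curve was fitted to the dose-response data by nonlinear least squares to obtain GI50, the molar concentration giving the set level of growth inhibition, which is reported as its negative logarithm. The logarithm is base 10, and values equal to the top dose carry a < qualifier.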

In experiment [2] the test system is BT20. Summed up: as §1
Experiment [3] relates to BT549. In outline:
as §1

Experiment [4] concerns CAMA1. In outline: as §1
Experiment [5] concerns HCC1395. In outline: as §1
Experiment [6] concerns HCC1569. Summed up: as §1
The subject of experiment [7] is HCC1806. Summed up: as §1
Experiment [8] deals with MCF10A. In outline: as §1
In experiment [9] the test system is MCF10F. Summed up:
as §1

In experiment [10] the test system is MDAMB134VI. Summed up:
as §1

Experiment [11] concerns MDAMB361. Summed up:
as §1

Experiment [12] has as its system MX1. Summed up: as §1
Experiment [13] concerns SKBR3. In outline:
as §1

The test system of experiment [14] is SUM149PT. In outline:
as §1

For experiment [15], the system named is SUM229PE. In outline:
as §1

Experiment [16] relates to SUM52PE. Summed up:
as §1

Experiment [17] deals with T47D_KBluc. In outline: as §1
Experiment [18] has as its system UACC812. In outline:
as §1

Experiment [19] deals with ZR751. In outline: as §1
Experiment [20] relates to ZR75B. In outline:
as §1

Each structure is given as a SMILES string.

Regarding `O=C1NC(=O)/C(=C/c2ccc(-c3ccc(F)cc3O)o2)S1`, the “-log10 GI50” value in [1] is 4.88; in experiment [2] it was 4.93; in experiment [3], under 4.48; in experiment [4], under 4.18; in experiment [5], 4.22; in [6], 4.54. Also, the “-log10 GI50” value in [7] is 5.25; in [8], under 4.18; in experiment [9], under 4.48; in experiment [10] it was 4.48; in experiment [11] it was 4.78; in [12], 4.66. In addition, the “-log10 GI50” value in [13] is 4.4; in experiment [14] it was 5; in [15] it was under 4.18; in experiment [16], 4.69; in experiment [17] it was under 4.48; in experiment [18], 4.88. Also, the “-log10 GI50” value in experiment [19] was 5.2; in experiment [20], 5.04.

Consider `Oc1cc(-c2nc(-c3ccccc3)[nH]c2-c2ccncc2)ccc1Cl`, for which the “-log10 GI50” value in experiment [1] was under 4.48; in experiment [2] it was 4.62; in experiment [3] it was under 4.48; in experiment [4], 4.4; in experiment [5] it was 4.82; in experiment [6], 4.77. Also, the “-log10 GI50” value in experiment [7] came to 4.9; in experiment [8], 4.92; in experiment [9], 4.92; in experiment [10] it was 4.85; in [11], 4.76; in experiment [12], 4.98. Moreover, the “-log10 GI50” value in experiment [13] was 4.66; in experiment [14] it was 5.14; in experiment [15], 4.52; in [16], 5.13; in experiment [18] it was 4.9; in experiment [19], 4.59. Also, the “-log10 GI50” value in experiment [20] was found to be 4.51.

`CN(C)C/C=C/C(=O)Nc1cc2c(Nc3ccc(F)c(Cl)c3)ncnc2cc1O[C@H]1CCOC1` [BIBW2992]: the “-log10 GI50” value in [2] came to 5.56; in experiment [3] it was 5.87; in [4] it was 5.65; in [5], 5.93; in experiment [6], 6.56; in experiment [7], 6.27. Further, the “-log10 GI50” value in [8] came out at 7.49; in experiment [9] it was 7.01; in [10], 5.44; in [11], 8.21; in experiment [12], 6.58; in experiment [13], 7.88. In addition, the “-log10 GI50” value in [14] worked out at 7.13; in experiment [15] it was 5.95; in [16] it was 5.47; in [17], 5.45; in experiment [18], 8.55; in [19], 5.63. Besides, in [20], the “-log10 GI50” value came to 5.52.

As to `CC(C)C[C@H](NC(=O)[C@H](Cc1ccccc1)NC(=O)c1cnccn1)B(O)O` [Bortezomib], the “-log10 GI50” value stood at 8.32 in experiment [1]; 7.33 in experiment [2]; 8.21 in experiment [3]; 7.9 in [4]; 8.15 in [5]; 8.12 in experiment [6]. Further, the “-log10 GI50” value in experiment [7] worked out at 7.59; in experiment [8] it was 6.64; in [9] it was 7.59; in experiment [10] it was 8.08; in [11], 5.54; in experiment [12] it was 8.06. The “-log10 GI50” value was found to be 7.88 in experiment [13]; 8 in experiment [14]; 7.48 in experiment [15]; 8.28 in experiment [16]; 6.52 in experiment [17]; 7.55 in experiment [19]. The “-log10 GI50” value in [20] stood at 7.53.

Take `CCN(CC)C(=S)SSC(=S)N(CC)CC` [Disulfiram]: the “-log10 GI50” value in experiment [1] was 6.84; in experiment [2] it was 7.3; in experiment [3], 6.89; in experiment [4] it was 4.85; in [5] it was under 4.18; in [6], under 4.18. Moreover, the “-log10 GI50” value was 4.93 in [8]; under 4.18 in [9]; 5.88 in experiment [10]; 6.56 in [11]; 4.54 in experiment [12]; 7.1 in experiment [13]. The “-log10 GI50” value was determined as 4.5 in [15], 4.53 in experiment [16], 7 in experiment [17] and 7.03 in [18].

On to `COc1cc([C@@H]2c3cc4c(cc3[C@@H](O[C@@H]3O[C@@H]5CO[C@@H](C)O[C@H]5[C@H](O)[C@H]3O)[C@H]3COC(=O)[C@H]23)OCO4)cc(OC)c1O` [Etoposide], for which the “-log10 GI50” value in [1] stood at 6.2; in experiment [2], 5.48; in experiment [3], 5.89; in [4], 5.31; in experiment [5], 5.53; in experiment [6], 4.2. For the same compound, the “-log10 GI50” value in [7] came out at 5.51; in experiment [8], 5.43; in experiment [9], 6.13; in experiment [10], 5.61; in experiment [11], 4.85; in experiment [12] it was 6.34. In addition, the “-log10 GI50” value in experiment [13] turned out to be 5.92; in [14], 5.58; in [15] it was 6.04; in experiment [16], 5.59; in [17] it was 5.79; in experiment [19] it was 5.68. For the same compound, the “-log10 GI50” value in experiment [20] came to 6.06.
